Reference: patent US10730849B2, “Benzo[b]thiophene compounds as STING agonists” (MERCK SHARP & DOHME CORP., priority 2016, dated 2020)
pEC50: −log10 of the molar value.

Assays:
THP1 cells = assay: IFN-β secretion in THP1 cell culture (5 h); format: cell-based, human; conditions: relative to 30 uM cGAMP
Method: The ability of compounds to stimulate the secretion of interferon-beta from THP1 cells was measured using a human IFN-3 AlphaLISA kit (Perkin Elmer, Cat. No. AL265F). The basic protocol is as follows:
The cell viability and count was ascertained using a Beckman Coulter V-Cell XR cell counter. The cells suspension was centrifuged at 200×g for 5 min at RT. Cells were resuspended to a density of 0.8×10^6/mL in 37° C. assay medium. Subsequent liquid transfers were performed using either a Matrix electronic multichannel pipette or an Agilent Bravo Automated Liquid Handling Platform.
The assay was started by dispensing 40 μL of the previously prepared cell suspension into the wells of the plate containing compounds. After 5 h incubation at 37° C., 5% CO2 in a humidified atmosphere, the plate of cells and compounds was centrifuged at 200×g for 5 min at RT. […] To these supernatant-containing wells was added 10 μL of 5× Anti-Analyte Acceptor beads ([…] of AlphaLISA HiBlock Buffer) and incubated for 30 min at RT while shaking on an orbital plate shaker. To each well was added 10 μL of 5× Biotinylated Antibody Anti-analyte (5 nM in AlphaLISA HiBlock Buffer) and incubated on an orbital plate shaker for 60 min at RT or overnight at 4° C. To each well was added 25 μL of 2× SA-Donor beads ([…] in AlphaLISA HiBlock Buffer) and incubated for 30-45 min at RT in the dark while shaking on an orbital plate shaker. The plate was then read on a Perkin Elmer Envision (λex=680 nm, […]). The percent effect of the AlphaLISA signal at each compound concentration was calculated based on 30 uM cGAMP positive controls and 0.3% DMSO negative controls. The plot of percent effect versus the log of compound concentration was fit with a 4-parameter concentration response equation to calculate EC50 values.
Compounds of the disclosure were evaluated for IFN-3 secretion in THP1 cell culture as described above.

full-length HAQ STING = full-length HAQ STING (Homo sapiens (Human), UniProt Q86WV6, G230A/H232R/R293Q/R71H); assay: 3H-cGAMP filtration binding assay (HAQ STING); conditions: competition with tritiated cGAMP, HAQ STING membrane
Excerpt: The ability of compounds to bind STING is quantified by the ability to compete with tritiated cGAMP ligand for human STING receptor membrane using a radioactive filter-binding assay. The binding assay employs STING receptor obtained from Hi-Five cell membranes overexpressing full-length HAQ STING prepared in-house and tritiated cGAMP ligand also purified in-house.
(§1) The ability of compounds to bind STING is quantified by their ability to compete with tritiated cGAMP ligand for human STING receptor membrane using a radioactive filter-binding assay. The binding assay employs STING receptor obtained from Trichoplusia ni cell membranes (T. ni; Expression Systems, cat #94-002F, www.exressionsystems.com) overexpressing full-length HAQ STING and tritiated cGAMP ligand.
The basic HAQ STING filtration assay protocol is as follows:
Compound and membrane then preincubated for 60 min at RT to allow compound binding to equilibrate. Following equilibration, 8 nM of [^3H]c-GAMP ligand was prepared by diluting into assay buffer, and 50 uL of this working stock was then manually added to each well of the assay plate. […] The filter plates were then dried at 55° C. for 30 min using a pressurized oven before 30 uL of ULTIMA GOLD F scintillate was added to each well. Tritium levels for each reaction well were then measured using a PerkinElmer TopCount plate reader.
(§2) After normalization to controls, the percent activity for each compound concentration was calculated by measuring the amount of remaining radioactivity. The plot of percent activity versus the log of compound concentration was fit with a 4-parameter dose response equation to calculate EC50 values.

full-length WT STING = full-length WT STING (Homo sapiens (Human), UniProt Q86WV6, H232R); assay: 3H-cGAMP filtration binding assay (WT STING); conditions: for pEC50: competition with tritiated cGAMP, WT STING membrane; for inhibition at 20 µM: WT STING, compound at 20 uM
Excerpt: as §1, with “www.expressionsystems.com)” for “www.exressionsystems.com)”, “WT” for “HAQ”
The basic WT STING filtration assay protocol is as follows:
The filter plates were then dried at 55° C. for 30 min using a pressurized VWR oven before 30 uL of ULTIMA GOLD F scintillate was added to each well. Tritium levels for each reaction well were then measured using a PerkinElmer TopCount plate reader.
as §2

Chain of full-length WT STING (Q86WV6 other isoform, or with tags, fused parts or gaps H232R (already in the parent)): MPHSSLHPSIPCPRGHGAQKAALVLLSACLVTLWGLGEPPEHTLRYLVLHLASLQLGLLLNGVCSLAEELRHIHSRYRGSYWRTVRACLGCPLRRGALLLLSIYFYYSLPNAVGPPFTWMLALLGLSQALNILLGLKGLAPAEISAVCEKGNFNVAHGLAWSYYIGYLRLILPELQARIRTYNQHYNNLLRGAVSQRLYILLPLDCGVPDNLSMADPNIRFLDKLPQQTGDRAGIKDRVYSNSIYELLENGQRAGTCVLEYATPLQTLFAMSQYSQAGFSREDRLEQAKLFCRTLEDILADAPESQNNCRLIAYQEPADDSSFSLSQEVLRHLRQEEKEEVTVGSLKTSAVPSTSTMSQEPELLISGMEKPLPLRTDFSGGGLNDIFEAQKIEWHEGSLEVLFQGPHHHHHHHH
Chain of full-length HAQ STING (Q86WV6 other isoform, or with tags, fused parts or gaps, stated change not applied): as the sequence (Q86WV6 other isoform, or with tags, fused parts or gaps H232R (already in the parent)) above, with R71H, G230A, R293Q counted along it

| SMILES | % Effect at 30 μM relative to 2’3’-cGAMP (THP1 cells) | pEC50 (full-length HAQ STING) | pEC50 (full-length WT STING) | inhibition at 20 µM (full-length WT STING) |
| --- | --- | --- | --- | --- |
| COCC(CC(=O)c1cc2cc(OC)c(OC)cc2s1)C(=O)O (stereo not drawn) [Example 17, 4-(5,6-Dimethoxybenzo[b]thiophen-2-yl)-2-(methoxymethyl)-4-oxobutanoic acid] | 21% | 5.23 | 4.83 | – |
| C=Cc1cc2cc(C(=O)CCC(=O)O)sc2cc1OC [Example 18, 4-(6-Methoxy-5-vinylbenzo[b]thiophen-2-yl)-4-oxobutanoic acid] | 273% | 4.90 | – | 21% |
| COc1cc2sc(C(=O)CCC(=O)O)cc2cc1Br [Example 19, 4-(5-Bromo-6-methoxybenzo[b]thiophene-2-yl)-4-oxobutanoic acid] | 153% | 5.01 | – | 30% |
| C[C@@H](CC(=O)c1cc2cc(Cl)c(Cl)cc2s1)C(=O)O [Example 20] | 47% | 4.97 | – | 33% |
| CCc1cc2sc(C(=O)C[C@H](C)C(=O)O)cc2cc1OC [Example 21, (S)-4-(6-Ethyl-5-methoxybenzo[b]thiophen-2-yl)-2-methyl-4-oxobutanoic acid] | 162% | 5.20 | 4.84 | – |
| COc1cc2cc(C(=O)C[C@H](C)C(=O)O)sc2cc1C [Example 22, (S)-4-(5-methoxy-6-methylbenzo[b]thiophen-2-yl)-2-methyl-4-oxobutanoic acid] | 43% | 5.06 | 4.77 | – |
| COc1cc2cc(C(=O)CCC(=O)O)sc2cc1Cl [Example 23, 4-(6-Chloro-5-methoxybenzo[b]thiophen-2-yl)-4-oxobutanoic acid] | 191% | 5.22 | – | 37% |
| COc1cc2sc(C(=O)C[C@H](C)C(=O)O)cc2cc1Br [Example 24, (S)-4-(5-Bromo-6-methoxybenzo[b]thiophen-2-yl)-2-methyl-4-oxobutanoic acid] | 214% | 5.58 | 5.07 | – |
| COc1cc2sc(C(=O)CCC(=O)O)c(Cl)c2cc1OC [Example 27, 4-(3-chloro-5,6-dimethoxybenzo[b]thiophen-2-yl)-4-oxobutanoic acid] | 14% | 4.88 | – | 19% |
| COc1cc2sc(C(=O)C[C@H](C)C(=O)O)cc2cc1Cl [Example 28, (S)-4-(5-chloro-6-methoxybenzo[b]thiophen-2-yl)-2-methyl-4-oxobutanoic acid] | 86% | 5.71 | 5.03 | – |
| Cc1cc2cc(C(=O)C[C@H](C)C(=O)O)sc2cc1Br [Example 29, (S)-4-(6-bromo-5-methylbenzo[b]thiophen-2-yl)-2-methyl-4-oxobutanoic acid] | 9% | 4.86 | – | 16% |
| COc1cc2sc(C(=O)C[C@H](C)C(=O)O)cc2cc1F [Example 30, (S)-4-(5-fluoro-6-methoxybenzo[b]thiophen-2-yl)-2-methyl-4-oxobutanoic acid] | 15% | 5.30 | 4.73 | – |
| C[C@@H](CC(=O)c1cc2cc(Cl)c(Br)cc2s1)C(=O)O [Example 32, (S)-4-(6-bromo-5-chlorobenzo[b]thiophen-2-yl)-2-methyl-4-oxobutanoic acid] | 24% | 5.44 | 4.77 | – |
| CCOc1cc2sc(C(=O)C[C@H](C)C(=O)O)cc2cc1Cl [Example 33, (S)-4-(5-chloro-6-ethoxybenzo[b]thiophen-2-yl)-2-methyl-4-oxobutanoic acid] | 25% | 5.19 | – | 30% |
| Cc1cc2sc(C(=O)C[C@H](C)C(=O)O)cc2cc1Br [Example 34, (S)-4-(5-bromo-6-methylbenzo[b]thiophen-2-yl)-2-methyl-4-oxobutanoic acid] | 34% | 4.98 | – | 18% |
| COc1cc2cc(C(=O)CC(C)C(=O)O)sc2cc1OC (stereo not drawn) [Example 35, 4-(5,6-dimethoxybenzo[b]thiophen-2-yl)-2-methyl-4-oxobutanoic acid] | 57% | 5.26 | 5.12 | – |
| C#Cc1cc2cc(C(=O)CCC(=O)O)sc2cc1OC [Example 36, 4-(5-Ethynyl-6-methoxybenzo[b]thiophen-2-yl)-4-oxobutanoic acid] | 11% | 4.84 | – | 9% |
| C=Cc1cc2cc(C(=O)C[C@H](C)C(=O)O)sc2cc1OC [Example 41, (S)-4-(6-methoxy-5-vinylbenzo[b]thiophen-2-yl)-2-methyl-4-oxobutanoic acid] | 312% | 5.24 | 4.83 | – |
| COc1cc2cc(C(=O)C[C@H](C)C(=O)O)sc2cc1O [Example 43, (S)-4-(6-hydroxy-5-methoxybenzo[b]thiophen-2-yl)-2-methyl-4-oxobutanoic acid] | 56% | 5.92 | 5.39 | – |
| COc1cc2cc(C(=O)C[C@H](C)C(=O)O)sc2cc1CCF [Example 46, (2S)-4-[6-(2-fluoroethyl)-5-methoxy-1-benzothiophen-2-yl]-2-methyl-4-oxobutanoic acid] | 205% | 5.13 | – | 24% |
| CCOC(=O)C(C)(O)CC(=O)c1cc2cc(OC)c(OC)cc2s1 (stereo not drawn) [Example 48, Ethyl 4-(5,6-dimethoxybenzo[b]thiophen-2-yl)-2-hydroxy-2-methyl-4-oxobutanoate] | 71% | 4.72 | – | 23% |
| CCC(CC(=O)c1cc2c(F)c(OC)c(OC)cc2s1)C(=O)O (stereo not drawn) [Example 50, 2-ethyl-4-(4-fluoro-5,6-dimethoxybenzo[b]thiophen-2-yl)-4-oxobutanoic acid] | 115% | 6.05 | 5.67 | – |
| COc1cc2sc(C(=O)[C@H]3C[C@H]3C(=O)O)cc2c(F)c1OC [Example 51, (1R,2S)-2-(4-fluoro-5,6-dimethoxybenzo[b]thiophene-2-carbonyl)cyclopropane-1-carboxylic acid] | 31% | 4.75 | – | 3% |
| COc1cc2sc(C(=O)[C@@H]3C[C@@H]3C(=O)O)cc2c(F)c1OC [Example 52, (1S,2R)-2-(4-fluoro-5,6-dimethoxybenzo[b]thiophene-2-carbonyl)cyclopropane-1-carboxylic acid] | 142% | 6.22 | – | 101% |
| COc1cc2cc(C(=O)CCC(=O)O)sc2cc1OC(F)F [Example 53, 4-(6-(difluoromethoxy)-5-methoxybenzo[b]thiophen-2-yl)-4-oxobutanoic acid] | 182% | 4.86 | – | 7% |
